Source: patent US10519211B2, “Compounds as peptidic GLP1/glucagon/GIP receptor agonists” (SANOFI, priority 2016, dated 2019)

Experiments:
[1] = Chemical stability assessment (UPLC-UV, relative purity loss); type: physicochemical; details: 1 mg/ml, 25 mM acetate buffer pH 4.5 with m-cresol (buffer system A)
Outline: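 Peptide at 1 mg/mL (purity-corrected) in 25 mM acetate pH 4.5 with methionine, m-cresol and glycerol, sterile-filtered, stored 28 days at 40° C. Purity measured by UPLC-UV as peptide peak area fraction at start and after storage; value is relative percent purity loss.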

[2] = Thioflavin T (ThT) assay for physical stability (fibrillation); type: physicochemical; details: 3 mg/ml, 100 mM acetate pH 4.5 with m-cresol, shaking at 37° C.
Outline: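 Peptide at 3 mg/ml with 100 μM ThT in 100 mM acetate pH 4.5 with m-cresol, stressed at 37° C by cycles of 10 s shaking at 960 rpm and 50 s rest. Fluorescence read every 20 minutes, eight replicates; lag time in hours.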

[3] = test system: female diet-induced obese (DIO) C57BL/6NHsd mice; test: Acute and chronic effects after subcutaneous treatment in female diet-induced obese (DIO) mice; type: in vivo, mouse; details: for Body mass compared to the DIO-Vehicle group / Whole body fat mass compared to the DIO-Vehicle group / Plasma insulin concentrations compared to DIO vehicle / Plasma total cholesterol concentrations compared to DIO vehicle / Liver mass on day 28 compared to DIO animals treated with vehicle / Plasma alanine aminotransferase concentration on day 28 compared to DIO vehicle: 30 μg/kg s.c. twice daily; for Body mass compared to the DIO-Vehicle group / Whole body fat mass compared to the DIO-Vehicle group / Body mass change: 28 days; for Body mass compared to the DIO-Vehicle group / Whole body fat mass compared to the DIO-Vehicle group / Plasma insulin concentrations compared to DIO vehicle / Plasma total cholesterol concentrations compared to DIO vehicle / Liver mass on day 28 compared to DIO animals treated with vehicle / Plasma alanine aminotransferase concentration on day 28 compared to DIO vehicle / 24 hour blood glucose profile following first treatment: in words; for Plasma insulin concentrations compared to DIO vehicle / Plasma total cholesterol concentrations compared to DIO vehicle: day 28; for 24 hour blood glucose profile following first treatment: 30 μg/kg s.c., day 1, fed DIO mice, vs DIO control; for Body mass change / Whole body fat mass change / Terminal liver mass (g) / Terminal plasma alanine aminotransferase (U/L) / Terminal plasma insulin (U/L) / Terminal plasma total cholesterol (mmol/L): Table 11, twice-daily 30 μg/kg s.c.; for Body mass change: mean ± SEM; for Whole body fat mass change: QNMR predose vs day 26, mean ± SEM; for Terminal liver mass (g) / Terminal plasma alanine aminotransferase (U/L) / Terminal plasma insulin (U/L) / Terminal plasma total cholesterol (mmol/L): day 28, mean ± SEM
Procedure: Female C57BL/6NHsd mice were ordered group housed from Envigo RMS Inc., shipped group housed and remained group housed with shipped cage mates in shoebox caging with wood chip bedding until day 38 of the predose phase. At the study start mice were between 25-26 weeks old.
Mice were housed under vivarium conditions that included a 12 h light/dark cycle (light phase 04:00 AM-4:00 PM), room temperatures between 23-26° C. and a relative humidity between 30-70%. All animals had free access to water and a high fat diet (TD97366) for 16 weeks prior to pharmacological intervention (dosing phase). Feed was replaced with fresh feed weekly until and for the last time on day 38 of the predose phase. During the subsequent dosing phase, approximately 50% of the remaining feed were removed, replaced with fresh feed, and pellets were mixed evenly once per week.
On predose day 38, obese DIO mice were assigned to treatment groups (n=8) to match mean body masses between all DIO groups. An age-matched group with ad libitum access to a rodent maintenance diet (Teklad Global Diets Rodent 2014, pelleted) was included in the study as a lean control group. In the predosing phase from day 32 through 38, all study animals were treated with vehicle (Phosphate Buffered Saline, PBS, Gibco, without CaCl2 and MgCl2) once daily (s.c. approximately 0.2 mL/mouse).
On day 37 of the predose phase, the test article was diluted with PBS to a concentration of 100 μg/mL and aliquots of this stock solution were stored at approximately ≤−60° C. Stock aliquots were thawed for weekly use and thereafter stored in a refrigerator at approximately 4° C. The injected test article solution was prepared fresh once on each dosing day by diluting stock solution with PBS to achieve the desired concentration.
Mice were treated twice daily with a s.c. injection of PBS-vehicle or the test article for 28 days. The morning dosing was initiated and completed between 06:00 and 07:30 AM and the afternoon dosing between 2:00 and 3:30 PM. On day 28 of the dosing phase only the morning dose was administered. The applied volume was 5 ml/kg and the dose was adjusted to the most recent body mass recording of each individual.
Animals had unlimited access to water and feed during the experiment. On day 1 of the dosing phase approximately 5 μL of blood were collected via tail clips at hour 0, prior to the first s.c. dose of PBS-vehicle or test-article as well as 1, 2, 3, 4, 6, and 24 hours post-dose. Animals received the second s.c. dose of PBS-vehicle or test-article 8 hours after the first dose. The 24 hour blood collection of the blood glucose profile was performed prior to dosing on day 2. Glucose measurements were performed in whole blood and in duplicate or triplicate using Aviva glucometers.
Body mass was measured daily approximately between 06:00-07:30 AM from day 32 through 38 of the predosing phase and throughout the 28 days of the dosing phase. During the dosing phase mice were treated twice daily with either a s.c. injection of PBS-vehicle or test article.
To determine whole body fat mass Quantitative Nuclear Magnetic Resonance (QNMR) measurements were performed on predosing day 37 and on day 26 of the dosing phase. During the dosing phase mice were treated twice daily with either a s.c. injection of PBS-vehicle or test article.
On day 28 blood was collected prior to any other inlife activities for determination of plasma insulin concentrations. Then the morning dose was administered and necropsy was performed 4 hours post-dose. For this purpose animals were anesthetized with isoflurane and blood was collected by orbital bleeding.
On day 28 and 4 hours after the morning dose, blood was collected from mice under isoflurane anesthesia as described above. Then mice were killed and livers were collected and weighed.
Data are depicted as means±SEM. […] A One-Way ANOVA and Tukey Test were used for pairwise multiple comparisons of all groups (n=8/group, deviations from group size are indicated). […]

| SMILES | Chemical stability [relative purity loss 28 days 40° C.] (%) at pH 4.5 [1] | Lag time before increase [2] | Body mass compared to the DIO-Vehicle group [3] | Whole body fat mass compared to the DIO-Vehicle group [3] | Plasma insulin concentrations compared to DIO vehicle [3] | Plasma total cholesterol concentrations compared to DIO vehicle [3] | Liver mass on day 28 compared to DIO animals treated with vehicle [3] | Plasma alanine aminotransferase concentration on day 28 compared to DIO vehicle [3] | 24 hour blood glucose profile following first treatment [3] | Body mass change [3] | Whole body fat mass change [3] | Terminal liver mass (g) [3] | Terminal plasma alanine aminotransferase (U/L) [3] | Terminal plasma insulin (U/L) [3] | Terminal plasma total cholesterol (mmol/L) [3] |
| --- | --- | --- | --- | --- | --- | --- | --- | --- | --- | --- | --- | --- | --- | --- | --- |
| CCCCCCCCCCCCCCCC(=O)N[C@@H](CCC(=O)N[C@@H](CCC(=O)NCCCC[C@H](NC(=O)[C@H](CC(C)C)NC(=O)[C@H](CCCCN)NC(=O)[C@H](CO)NC(=O)[C@H](CC(C)C)NC(=O)[C@H](CC(=O)O)NC(=O)[C@H](CO)NC(=O)[C@@H](NC(=O)[C@H](Cc1ccccc1)NC(=O)[C@@H](NC(=O)CNC(=O)[C@H](CCC(N)=O)NC(=O)C(C)(C)NC(=O)[C@@H](N)Cc1c[nH]cn1)[C@@H](C)O)[C@@H](C)O)C(=O)N[C@@H](CCC(=O)O)C(=O)N[C@@H](CCC(=O)O)C(=O)N[C@@H](CCC(N)=O)C(=O)N[C@@H](CCCNC(=N)N)C(=O)N[C@@H](CCC(N)=O)C(=O)NC(C)(C)C(=O)N[C@@H](CCC(=O)O)C(=O)N[C@@H](Cc1ccccc1)C(=O)N[C@H](C(=O)N[C@@H](CCC(=O)O)C(=O)N[C@@H](Cc1c[nH]c2ccccc12)C(=O)N[C@@H](CC(C)C)C(=O)N[C@@H](CCCCN)C(=O)N[C@@H](C)C(=O)NCC(=O)NCC(=O)N[C@@H](Cc1c[nH]cn1)C(=O)N1CCC[C@H]1C(=O)N[C@@H](CO)C(=O)NC(C)(C)C(=O)N[C@@H](CCCCN)C(=O)N1CCC[C@H]1C(=O)N1CCC[C@H]1C(=O)N1CCC[C@H]1C(=O)N[C@@H](CCCCN)C(N)=O)[C@@H](C)CC)C(=O)O)C(=O)O [SEQ ID NO: 8, H-Aib-Q-G-T-F-T-S-D-L-S-K-L-K[gGlu-gGlu-Palm]-E-E-Q-R-Q-Aib-E-F-I-E-W-L-K-A-G-G-H-P-S-Aib-K-P-P-P-K-NH2] | 7.6% | >45 h | statistically significant decrease in body mass | statistically significantly reduction in whole body fat mass | statistically significant reduction in plasma insulin concentrations | statistically significant reduction in plasma total cholesterol concentrations | statistically significantly lower liver mass | statistically significantly lower plasma alanine aminotransferase concentration | decrease in blood glucose concentrations below concentrations observed in DIO control mice | -8.23 ± 0.62 g | -6.65 ± 0.38 g | +1.08 ± 0.03 g | +68.88 ± 15.05 U/L | +39.70 ± 4.25 U/L | +4.36 ± 0.08 mmol/L |
| CCCCCCCCCCCCCCCC(=O)N[C@@H](CCC(=O)N[C@@H](CCC(=O)NCCCC[C@H](NC(=O)[C@H](CC(C)C)NC(=O)[C@H](CCCCN)NC(=O)[C@H](CO)NC(=O)[C@H](CC(C)C)NC(=O)[C@H](CC(=O)O)NC(=O)[C@H](CO)NC(=O)[C@@H](NC(=O)[C@H](Cc1ccccc1)NC(=O)[C@@H](NC(=O)CNC(=O)[C@H](CCC(N)=O)NC(=O)C(C)(C)NC(=O)[C@@H](N)Cc1c[nH]cn1)[C@@H](C)O)[C@@H](C)O)C(=O)N[C@@H](CCC(=O)O)C(=O)N[C@@H](CCC(=O)O)C(=O)N[C@@H](CCC(N)=O)C(=O)N[C@@H](CCCNC(=N)N)C(=O)N[C@@H](CCC(N)=O)C(=O)NC(C)(C)C(=O)N[C@@H](CCC(=O)O)C(=O)N[C@@H](Cc1ccccc1)C(=O)N[C@H](C(=O)N[C@@H](CCC(=O)O)C(=O)N[C@@H](Cc1c[nH]c2ccccc12)C(=O)N[C@@H](CC(C)C)C(=O)N[C@@H](CCCCN)C(=O)N[C@@H](C)C(=O)NCC(=O)NCC(=O)N1CCC[C@H]1C(=O)N1CCC[C@H]1C(=O)N[C@@H](CO)C(=O)NC(C)(C)C(=O)N[C@@H](CCCCN)C(=O)N1CCC[C@H]1C(=O)N1CCC[C@H]1C(=O)N1CCC[C@H]1C(=O)N[C@@H](CCCCN)C(N)=O)[C@@H](C)CC)C(=O)O)C(=O)O [SEQ ID NO: 9, H-Aib-Q-G-T-F-T-S-D-L-S-K-L-K[gGlu-gGlu-Palm]-E-E-Q-R-Q-Aib-E-F-I-E-W-L-K-A-G-G-P-P-S-Aib-K-P-P-P-K-NH2] | 8.7% | >45 h | statistically significant decrease in body mass | statistically significantly reduction in whole body fat mass | statistically significant reduction in plasma insulin concentrations | statistically significant reduction in plasma total cholesterol concentrations | statistically significantly lower liver mass | statistically significantly lower plasma alanine aminotransferase concentration | decrease in blood glucose concentrations below concentrations observed in DIO control mice | -10.03 ± 2.33 g | -5.29 ± 2.32 g | +1.11 ± 0.06 g | +57.13 ± 7.33 U/L | +38.95 ± 7.30 U/L | +3.97 ± 0.12 mmol/L |
